Our source for the GI50 and TGI values is PubChem BioAssay (NCI).

Some test systems named below: SR leukemia; K-562 leukemia; OVCAR-8 ovarian; SF-295 CNS; TK-10 renal; U251 CNS; HCT-15 colon; IGROV1 ovarian; SK-MEL-5 melanoma; MALME-3M melanoma.
Common to all, as to assay: NCI-60 cell line screen, 48 h

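Compound exposure: 48 hours, 5 concentrations, 96-well plates. The concentration for 50% growth inhibition is given as GI50. TGI marks complete inhibition of growth.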

In the case of `CCCC[C@H](NC(=O)[C@H]1CCCN1C)C(=O)N(C)[C@H](C[C@@H](OC(C)=O)c1nc(C(=O)N[C@@H](Cc2ccccc2)C[C@H](C)C(=O)OCC)cs1)C(C)C`, the GI50 with SR leukemia is less than 0.00333 µM; with K-562 leukemia, 0.00726 µM; in the assay with OVCAR-8 ovarian it was 0.036 µM; in the assay on SF-295 CNS, 0.0139 µM; in the assay with TK-10 renal, 6.88 µM; in the assay with U251 CNS, 0.0144 µM. Further, the GI50 in the assay on HCT-15 colon is 0.0365 µM; with IGROV1 ovarian, 0.0157 µM; in the assay on SK-MEL-5 melanoma it was less than 0.00333 µM. Also, the TGI in the assay on SR leukemia is 5.24 µM; with K-562 leukemia, more than 33.3 µM; with OVCAR-8 ovarian it was more than 33.3 µM; in the assay with SF-295 CNS, 4.13 µM; with TK-10 renal it was more than 33.3 µM; in the assay with U251 CNS, more than 33.3 µM. Moreover, the TGI is more than 33.3 µM in the assay on HCT-15 colon, more than 33.3 µM in the assay on IGROV1 ovarian and 0.063 µM in the assay with SK-MEL-5 melanoma.
In the case of `Nc1ccn(Cc2ccc(C34CC5CC(CC(C5)C3)C4)c(O)c2)c(=O)n1`, the GI50 in the assay with SR leukemia is more than 100 µM; in the assay on K-562 leukemia, 35.3 µM; with SF-295 CNS it was 31.5 µM; in the assay with TK-10 renal, more than 100 µM; in the assay on U251 CNS, 23.6 µM; in the assay on HCT-15 colon, more than 100 µM. In addition, the values for the GI50 in the assay on SK-MEL-5 melanoma and in the assay on MALME-3M melanoma were 82.4 µM and more than 100 µM, respectively. Moreover, the TGI in the assay on SR leukemia, in the assay on K-562 leukemia, in the assay with SF-295 CNS, in the assay with TK-10 renal, in the assay with U251 CNS and with HCT-15 colon was more than 100 µM throughout. For the same compound, the TGI in the assay on SK-MEL-5 melanoma and in the assay on MALME-3M melanoma was more than 100 µM in each case.
Turning to `Cc1cccc(NC(=O)CC(=O)N2N=C(N(CCC#N)c3ccc(Cl)cc3)CC2c2ccccc2)c1` (stereo unspecified), the TGI in the assay on SR leukemia, with K-562 leukemia, in the assay on OVCAR-8 ovarian, in the assay with SF-295 CNS, in the assay on TK-10 renal and with U251 CNS was more than 100 µM throughout. The TGI in the assay with IGROV1 ovarian, in the assay with SK-MEL-5 melanoma and in the assay on MALME-3M melanoma was more than 100 µM throughout.
In the case of `N#C/C(=C1\OC(=O)C(c2ccc(Br)cc2)=C1O)c1ccc(Br)cc1`, the TGI came to 55.6 µM in the assay with SR leukemia; 61.7 µM in the assay on K-562 leukemia; 24.6 µM in the assay on OVCAR-8 ovarian; 32.8 µM with SF-295 CNS; 36.7 µM in the assay with TK-10 renal; 26.1 µM in the assay with U251 CNS. In addition, the results for the TGI with IGROV1 ovarian and with MALME-3M melanoma were 34.4 µM and 31 µM, respectively.
With `O=C([O-])c1ccccc1Nc1ccccn1.O=C([O-])c1ccccc1Nc1ccccn1.[Ni+2]`, the GI50 is more than 100 µM with SR leukemia; 49.5 µM in the assay with K-562 leukemia; more than 100 µM in the assay with OVCAR-8 ovarian; more than 100 µM with SF-295 CNS; more than 100 µM in the assay on U251 CNS; more than 100 µM in the assay with HCT-15 colon. The figures for the GI50 in the assay on IGROV1 ovarian, in the assay on SK-MEL-5 melanoma and with MALME-3M melanoma were more than 100 µM, 73.9 µM and more than 100 µM, respectively. Also, the TGI in the assay with SR leukemia, in the assay with K-562 leukemia, in the assay on OVCAR-8 ovarian, in the assay on SF-295 CNS, in the assay on U251 CNS and in the assay with HCT-15 colon was more than 100 µM throughout. The TGI in the assay on IGROV1 ovarian, in the assay on SK-MEL-5 melanoma and with MALME-3M melanoma was more than 100 µM each time.
Turning to `COC(=O)[C@@H](C)C[C@H](Cc1ccccc1)NC(=O)c1nc([C@@H](C[C@H](C(C)C)N(C)C(=O)[C@@H](NC(=O)[C@H]2CCCCN2C)C(C)C)OC(C)=O)sc1C`, the GI50 in the assay with SR leukemia is less than 0.00167 µM; in the assay with K-562 leukemia, less than 0.00167 µM; with OVCAR-8 ovarian it was less than 0.00167 µM; with SF-295 CNS, less than 0.00167 µM; with TK-10 renal, more than 10.4 µM; with U251 CNS, less than 0.00167 µM. Also, the GI50 in the assay with HCT-15 colon was 0.00536 µM; in the assay with IGROV1 ovarian, 0.0017 µM; in the assay with SK-MEL-5 melanoma it was less than 0.00167 µM. Further, the TGI in the assay on SR leukemia, in the assay with K-562 leukemia, in the assay with OVCAR-8 ovarian, in the assay with SF-295 CNS, in the assay with TK-10 renal and in the assay with U251 CNS was more than 16.7 µM each time. The values for the TGI with HCT-15 colon, in the assay with IGROV1 ovarian and in the assay on SK-MEL-5 melanoma were more than 16.7 µM, more than 16.7 µM and 0.0565 µM, respectively.
As for `O=C(c1ccccc1)C1N=NCC1c1ccc([N+](=O)[O-])cc1` (stereo unspecified), the TGI with SR leukemia is 84.7 µM; in the assay with K-562 leukemia, more than 100 µM; with OVCAR-8 ovarian, more than 100 µM; with SF-295 CNS, more than 100 µM; in the assay on TK-10 renal it was more than 100 µM; in the assay with U251 CNS it was more than 100 µM. The figures for the TGI with HCT-15 colon, with SK-MEL-5 melanoma and in the assay on MALME-3M melanoma were more than 100 µM, 59.6 µM and more than 100 µM, respectively.
Turning to `COc1ccc(C(=O)/C=C/c2ccc(/C=C/c3cc(OC)c(OC)c(OC)c3)cc2)cc1`, the GI50 was 1.98 µM with SR leukemia; 3.03 µM in the assay on K-562 leukemia; 3.76 µM in the assay with OVCAR-8 ovarian; 9.01 µM in the assay with SF-295 CNS; 5.09 µM in the assay with U251 CNS; 2.42 µM in the assay with HCT-15 colon. The GI50 in the assay on IGROV1 ovarian was 9.24 µM; in the assay with SK-MEL-5 melanoma it was 3.39 µM; in the assay on MALME-3M melanoma, 13.2 µM. The TGI with SR leukemia was more than 100 µM; with K-562 leukemia, more than 100 µM; with OVCAR-8 ovarian, 61.1 µM; with SF-295 CNS, more than 100 µM; in the assay on U251 CNS, 54.7 µM; in the assay on HCT-15 colon, more than 100 µM. The TGI in the assay on IGROV1 ovarian was 76.4 µM; in the assay with SK-MEL-5 melanoma, 19.2 µM; in the assay with MALME-3M melanoma it was more than 100 µM.
Take `C[N+](C)(C)CC(=O)N/N=C(/Cc1nc2c3c(ccc2[nH]c1=O)C(=O)c1ccccc1C3=O)C(=O)Nc1ccc(Cl)c(Cl)c1`: the TGI in the assay on SR leukemia, in the assay with K-562 leukemia, with OVCAR-8 ovarian, in the assay on SF-295 CNS, with TK-10 renal and in the assay on IGROV1 ovarian was more than 100 µM in each case. The TGI with SK-MEL-5 melanoma and with MALME-3M melanoma was more than 100 µM in each case.
Turning to `Cc1occc1C(=S)Nc1ccc(Cl)c(COC(C)(C)C)c1`, the TGI was found to be 41.8 µM with SR leukemia; 31.5 µM in the assay with OVCAR-8 ovarian; 27.9 µM with SF-295 CNS; 34.8 µM in the assay with TK-10 renal; 28.9 µM in the assay with U251 CNS; 34.5 µM in the assay with HCT-15 colon. The results for the TGI with IGROV1 ovarian, in the assay on SK-MEL-5 melanoma and in the assay with MALME-3M melanoma were 31 µM, 33.4 µM and 31.1 µM, respectively.
